System: iPSC-derived primitive streak cells
Test: Flow cytometry of differentiation markers after CHIR99021 treatment of primitive streak cells
Type: cell-based, human
Description: iPSCs seeded onto Geltrex-coated plates at a density of 100,000 cells/cm^2 were treated with mTesR media with 10 μM ROCKi for the first 24 h. On Day 0, cells were treated with base media (DMEM/F12 with GlutaMax, 1×B27) supplemented with primitive streak induction factors including 100 ng/ml Activin A and 3 μM CHIR99021. On Day 2, cells were treated with base media including 8 μM CHIR99021 to induce intermediate mesoderm until Day 5, followed by treatment with base medium containing 200 ng/ml FGF9 and 1 mg/ml Heparin (Sigma-Aldrich, St. Louis, Missouri). On Day 7, to induce the nephron progenitors, the cells were dissociated using Accutase and replated (1:4) onto laminin-511-coated plates. The podocyte phenotype was induced using base media supplemented with 100 ng/ml BMP7, 100 ng/ml Activin A, 50 ng/ml VEGF, 3 μM CHIR99021, and 0.1 μM RA and cells were assayed on Day 12. The detailed methods for deriving the podocytes was carefully described elsewhere (Bejoy J, et al. STAR protocols. 2021 2 (4): 100898).
To evaluate the expression of proteins of interest quantitatively, the cells were harvested by Accutase treatment and analyzed by flow cytometry. […] The cells were acquired with BD FACSCanto II flow cytometer (BD Biosciences, Beckton, New Jersey) and analyzed against isotype controls using FlowJo software. […]

In the case of `Cc1c[nH]c(-c2cnc(NCCNc3ccc(C#N)cn3)nc2-c2ccc(Cl)cc2Cl)n1` [CHIR99021], the “population of MIXL1+ cells (flow cytometry)” value (8 μM CHIR99021 for 2-3 days on primitive streak cells) is reported as 26.7% and the “cells expressing PAX8 (flow cytometry)” value (day 5, after 8 μM CHIR99021, intermediate mesoderm stage) is reported as 95.9%.

From US20240352426A1, “Accelerated Protocol for the Differentiation of Podocytes from Human Pluripotent Stem Cells” (Vanderbilt University, priority 2021, published 2024)
